From ChEMBL document CHEMBL1123847, “Synthesis and structure-activity relationship of 1-aryl-6,8-difluoroquinolone antibacterial agents” (1987)
Values after ≈ are worked out from the molar mass of the structure shown.

Assays:
[1] = system: Klebsiella aerogenes; assay: In vitro antibacterial activity against Enterobacter aerogenes ATCC 13048; assay type: functional
[2] = system: Klebsiella pneumoniae; assay: In vitro antibacterial activity against Klebsiella pneumoniae 8045; assay type: functional
[3] = system: Pseudomonas aeruginosa; assay: In vitro mouse protection test against Pseudomonas aeruginosa 5007 (100 X LD50) (subcutaneous administration; Range is between (1.1-3.8).; assay type: functional; details: sc
[4] = system: Pseudomonas aeruginosa; assay: […] against Pseudomonas aeruginosa 5007 (100 X LD50) (p.o. administration ); Range is between (6.8-26.2).; assay type: functional; details: po
[5] = system: Pseudomonas aeruginosa; assay: In vitro antibacterial activity against Pseudomonas aeruginosa K799/WT; assay type: functional
[6] = system: Staphylococcus epidermidis; assay: In vitro antibacterial activity against Staphylococcus epidermis 3519; assay type: functional
[7] = system: Streptococcus pyogenes; assay: In vitro antibacterial activity against Streptococcus pyogenes 930; assay type: functional
[8] = system: Staphylococcus aureus; assay: In vitro antibacterial activity against Staphylococcus aureus CMX 686B; assay type: functional
[9] = system: Staphylococcus aureus; assay: In vitro antibacterial activity against Staphylococcus aureus ATCC 6538P; assay type: functional
[10] = system: Enterococcus faecium; assay: In vitro antibacterial activity against Streptococcus faecium ATCC 8043; assay type: functional
[11] = system: Acinetobacter; assay: In vitro antibacterial activity against Acinetobacter CMX 669; assay type: functional
[12] = system: Pseudomonas aeruginosa; assay: In vitro antibacterial activity against Pseudomonas aeruginosa 5007; assay type: functional
[13] = system: Escherichia coli; assay: animal or person; details: in Mus musculus, sc
[14] = system: Escherichia coli; assay: animal or person; details: in Mus musculus, po
[15] = system: Staphylococcus aureus; assay: animal or person; details: in Mus musculus, po
Description: In vitro mouse protection test against Staphylococcus aureus NCTC 10649 (100 X LD50) (p.o. administration );Range is between (9.9-24.1)

[16] = system: Staphylococcus aureus; assay: animal or person; details: in Mus musculus, sc
Description: In vitro mouse protection test against Staphylococcus aureus NCTC 10649 (100 X LD50) (s.c. administration );Range is between (1.0-2.5)

[17] = system: Escherichia coli; assay: […] against Escherichia coli Juhl (100 X LD50); Range is between (2.0-5.0); assay type: functional
[18] = system: Escherichia coli; assay: Compound was evaluated in vivo for antibacterial activity against Escherichia coli Juhl (100 X LD50) (s.c. administration); range is between (0.6-2.5); assay type: functional; details: sc
[19] = system: Escherichia coli; assay: Compound was evaluated in vivo for antibacterial activity against Escherichia coli Juhl (100 X LD50); assay type: functional
[20] = system: Escherichia coli; assay: In vitro antibacterial activity against Escherichia coli Juhl; assay type: functional
[21] = system: Pseudomonas aeruginosa; assay: […] against Pseudomonas aeruginosa 5007 (100 X LD50) (peroral administration); Range is between (15.8-[…]); assay type: functional; details: po
[22] = system: Pseudomonas aeruginosa; assay: […] against Pseudomonas aeruginosa 5007 (100 X LD50) (subcutaneous administration); Range is between (4.9-8.1); assay type: functional; details: sc
[23] = system: Pseudomonas aeruginosa; assay: Compound was evaluated in vivo for antibacterial activity against Pseudomonas aeruginosa 5007 (100 X LD50) (p.o. administration); Range is between (15.8-39.6).; assay type: functional; details: po
[24] = system: Pseudomonas aeruginosa; assay: Compound was evaluated in vivo for antibacterial activity against Pseudomonas aeruginosa 5007 (100 X LD50) (s.c. administration); Range is between (4.9-8.1); assay type: functional; details: sc
[25] = system: Staphylococcus aureus; assay: Compound was evaluated in vivo for antibacterial activity against Staphylococcus aureus NCTC 10649 (100 X LD50) (p.o. administration); Range is between (7.9-19-7).; assay type: functional; details: po
[26] = system: Staphylococcus aureus; assay: Compound was evaluated in vivo for antibacterial activity against Staphylococcus aureus NCTC 10649 (100 X LD50) (s.c. administration); Range is between (1.0-2.5); assay type: functional; details: sc
[27] = system: Staphylococcus aureus; assay: In vitro mouse protection test against Staphylococcus aureus NCTC 10649 (100 X LD50) (s.c. administration); Range is between (1.0-2.5); assay type: functional; details: sc
[28] = system: Staphylococcus aureus; assay: In vitro mouse protection test against Staphylococcus aureus NCTC 10649 (100 X LD50),(peroral administration); Range is between (7.9-19-7); assay type: functional; details: po
[29] = system: Escherichia coli; assay: […] against Escherichia coli Juhl (100 X LD50) (s.c. administration); Range is between (0.6-1.5); assay type: functional; details: sc
[30] = system: Escherichia coli; assay: Compound was evaluated in vivo for antibacterial activity against Escherichia coli Juhl (100 X LD50) (p.o. administration); Range is between (2.0-5.0); assay type: functional; details: po

| SMILES | MIC [1] | MIC [2] | MIC [5] | MIC [6] | MIC [7] | MIC [8] | MIC [9] | MIC [10] | MIC [11] | MIC [12] | MIC [20] | also measured |
| --- | --- | --- | --- | --- | --- | --- | --- | --- | --- | --- | --- | --- |
| O=C(O)c1cn(C2CC2)c2cc(N3CCNCC3)c(F)cc2c1=O [CIPROFLOXACIN] | 0.05 µg/mL (≈ 0.151 µM) | 0.02 µg/mL (≈ 0.0604 µM) | 0.1 µg/mL (≈ 0.302 µM) | 0.39 µg/mL (≈ 1.18 µM) | 0.39 µg/mL (≈ 1.18 µM) | 0.39 µg/mL (≈ 1.18 µM) | 0.2 µg/mL (≈ 0.604 µM) | 0.2 µg/mL (≈ 0.604 µM) | 1.56 µg/mL (≈ 4.71 µM) | 0.1 µg/mL (≈ 0.302 µM) | – | ED50 [3]: 2.1 mg/kg; ED50 [4]: 13.3 mg/kg; ED50 [13]: 0.2 mg/kg; ED50 [14]: 1.9 mg/kg; ED50 [15]: 15.5 mg/kg; ED50 [16]: 1.6 mg/kg |
| O=C(O)c1cn(-c2ccc(F)cc2)c2c(F)c(N3CCNCC3)c(F)cc2c1=O | 0.1 µg/mL (≈ 0.248 µM) | 0.05 µg/mL (≈ 0.124 µM) | 0.39 µg/mL (≈ 0.967 µM) | 0.78 µg/mL (≈ 1.93 µM) | 1.56 µg/mL (≈ 3.87 µM) | 0.39 µg/mL (≈ 0.967 µM) | 0.39 µg/mL (≈ 0.967 µM) | 6.2 µg/mL (≈ 15.4 µM) | 0.39 µg/mL (≈ 0.967 µM) | 0.78 µg/mL (≈ 1.93 µM) | 0.1 µg/mL (≈ 0.248 µM) | ED50 [17]: 3.2 mg/kg; ED50 [18]: 1 mg/kg; MIC [19]: 0.1 µg/mL (≈ 0.248 µM); ED50 [21]: 25 mg/kg; ED50 [22]: 6.3 mg/kg; ED50 [23]: 25 mg/kg; ED50 [24]: 6.3 mg/kg; ED50 [25]: 12.5 mg/kg; ED50 [26]: 1.6 mg/kg; ED50 [27]: 1.6 mg/kg; ED50 [28]: 12.5 mg/kg; ED50 [29]: 1 mg/kg; ED50 [30]: 3.2 mg/kg |
| CCn1cc(C(=O)O)c(=O)c2cc(F)c(N3CCNCC3)cc21 [NORFLOXACIN] | 0.2 µg/mL (≈ 0.626 µM) | 0.1 µg/mL (≈ 0.313 µM) | 0.39 µg/mL (≈ 1.22 µM) | 1.56 µg/mL (≈ 4.89 µM) | 3.1 µg/mL (≈ 9.71 µM) | 0.78 µg/mL (≈ 2.44 µM) | 0.78 µg/mL (≈ 2.44 µM) | 0.78 µg/mL (≈ 2.44 µM) | 6.2 µg/mL (≈ 19.4 µM) | 0.39 µg/mL (≈ 1.22 µM) | 0.1 µg/mL (≈ 0.313 µM) | – |
| NC1CCN(c2cc3c(cc2F)c(=O)c(C(=O)O)cn3-c2ccc(F)cc2)C1 (stereo not drawn) | 0.05 µg/mL (≈ 0.13 µM) | 0.02 µg/mL (≈ 0.0519 µM) | 0.2 µg/mL (≈ 0.519 µM) | 0.05 µg/mL (≈ 0.13 µM) | 0.1 µg/mL (≈ 0.259 µM) | 0.05 µg/mL (≈ 0.13 µM) | 0.05 µg/mL (≈ 0.13 µM) | 0.78 µg/mL (≈ 2.02 µM) | 0.2 µg/mL (≈ 0.519 µM) | 0.2 µg/mL (≈ 0.519 µM) | 0.02 µg/mL (≈ 0.0519 µM) | – |
| CN1CCN(c2cc3c(cc2F)c(=O)c(C(=O)O)cn3-c2ccc(F)cc2)CC1 [DIFLOXACIN] | 0.78 µg/mL (≈ 1.95 µM) | 0.1 µg/mL (≈ 0.25 µM) | 1.56 µg/mL (≈ 3.91 µM) | 0.39 µg/mL (≈ 0.976 µM) | 1.56 µg/mL (≈ 3.91 µM) | 0.2 µg/mL (≈ 0.501 µM) | 0.2 µg/mL (≈ 0.501 µM) | 1.56 µg/mL (≈ 3.91 µM) | 0.78 µg/mL (≈ 1.95 µM) | 0.78 µg/mL (≈ 1.95 µM) | 0.2 µg/mL (≈ 0.501 µM) | – |
